# Results published in patent US9523081B2, “Method for enhancing therapeutic effect of stem cells on autoimmune diseases, cardiovascular diseases, and/or hematological diseases” (GWO XI STEM CELL APPLIED TECHNOLOGY CO., LTD., priority 2014, dated 2016).
# Columns and labels:
# Type in all cases: cell-based
# IL-8 = assay: RT-PCR gene expression of IL-8 in ligustilide-treated ADSCs; details: for IL-8 expression level (Image J): ADSCs, 24 hours
# Procedure: (§1) ADSCs were cultured in the K-SFM as prepared in Example 1 at 37° C. in 5% CO2. The ADSCs were divided into […], and each group was treated with different concentrations (0, 0.625, 1.25, 2.5, 5 and 10 μg/ml) of (Z)-ligustilide for 24 hours, respectively.
# (§2) The culture medium were removed from each group of stem cells in Experiment (1), then 1 ml of TRIzol reagent (Invitrogen) was added into each well and incubated at room temperature for 5 minutes. The stem cells were scraped by using a spatula and placed into a 1.5 ml microtube. Then, the cells were lysed completely, and 0.2 ml of trichloromethane (CHCl3) was added into the microtube. The microtube was shaken up and down for 15 seconds and incubated at room temperature for 2 to 3 minutes. The mixture was centrifuged (at 12000 g for 15 minutes at 4° C.). The supernatant was transferred into another 1.5 ml microtube, and 0.5 ml of isopropanol was added therein and mixed completely. The mixture was incubated at room temperature for 10 minutes and then centrifuged (at 12000 g for 10 minutes at 4° C.). The supernatant was removed. The remained sediment was washed with 1 ml of 75% ethanol-containing DEPC water (i.e. diethylpyrocarbonate-treated H2O) and centrifuged (7500 g at 4° C. for 5 minutes) again. The supernatant was removed. The remained sediment was dried by vacuum-pumping. The dried sediment was dissolved in about 0.01 ml to 0.02 ml of DEPC water to obtain total RNA of ADSCs of experimental group and blank group, respectively. The absorbance at a wavelength of 260 nm (OD260) of the samples were determined by a spectrophotometer (DU-800, Beckman) to evaluate the concentration of RNA. Then, the RNA was stored at −80° C. and used in the following Experiment (3).
# (§3) The effects of ligustilide on increasing the expression of differentiation-promoting genes (e.g., BDNF and NURR1), increasing the expression of homing-promoting genes (e.g., CXCR4 and SDF1αβ), and decreasing the expression of inflammatory genes (e.g., IL-6 and IL-8) was analyzed by reverse transcription polymerase chain reaction (RT-PCR), wherein the gene expression of glyceraldehyde 3-phosphate dehydrogenase (GAPDH) was served as a control group, and the steps were described as follows.
# (§4) The total RNA provided in the above Experiment (2) was reverse transcribed into cDNA. 2.5 μl of each primer (10 pM) shown in Table 1A, 7.5 μl of ddH2O, and 12.5 μl of EconoTaq® PLUS GREEN 2X Master Mix (Lucigen, Middleton, Wis., USA) were mixed with 2.5 μl of the cDNA. The mixture was placed in a RT-PCR machine. The reaction conditions were set as follows: i) 94° C. for 30 seconds, 55° C. for 30 seconds, and […], with 30 cycles of the aforesaid steps; ii) 72° C. for 10 minutes; and iii) cooling to 4° C. to stop the reaction
# (§5) The obtained RT-PCR product was analyzed by 1.5% agarose gel electrophoresis for 30 minutes (voltage: 100 volts (V)). Then, the gel was placed in and stained with ethidium bromide (EtBr) for 10 minutes, and photographed by a gel image documentation system (DOC PRINT DP-001FDC, VilberLourmat France).
# CXCR4 = assay: RT-PCR gene expression of CXCR4 in ligustilide-treated ADSCs; details: for CXCR4 expression level (Image J): ADSCs, 24 hours
# Procedure: as §1, §2, §3, §4, §5
# IL-6 = assay: RT-PCR gene expression of IL-6 in ligustilide-treated ADSCs; details: for IL-6 expression level (Image J): ADSCs, 24 hours
# Procedure: as §1, §2, §3, §4, §5
# BDNF = assay: RT-PCR gene expression of BDNF in ligustilide-treated ADSCs; details: for BDNF expression level (Image J): ADSCs, 24 hours
# Procedure: as §1, §2, §3, §4, §5
# NURR1 = assay: RT-PCR gene expression of NURR1 in ligustilide-treated ADSCs; details: for NURR1 expression level (Image J): ADSCs, 24 hours
# Procedure: as §1, §2, §3, §4, §5
# SDF1αβ = assay: RT-PCR gene expression of SDF1αβ in ligustilide-treated ADSCs; details: for SDF1αβ expression level (Image J): ADSCs, 24 hours
# Procedure: as §1, §2, §3, §4, §5
# [1] = ADSCs treated with ligustilide, compared to GAPDH control, in words
structure (smiles),measurement,setting,value
"CCC/C=C1\OC(=O)C2=C1CCC=C2 [ligustilide, (Z)-ligustilide]",gene expression level of IL-8,IL-8; [1],decreased
same,IL-8 expression level (Image J),IL-8; 0.625 μg/ml ligustilide,6102.10
same,IL-8 expression level (Image J),IL-8; 1.25 μg/ml ligustilide,9691.71
same,IL-8 expression level (Image J),IL-8; 2.5 μg/ml ligustilide,5840.23
same,IL-8 expression level (Image J),IL-8; 5 μg/ml ligustilide,3487.33
same,gene expression level of CXCR4,CXCR4; [1],increased
same,CXCR4 expression level (Image J),CXCR4; 0.625 μg/ml ligustilide,2744.11
same,CXCR4 expression level (Image J),CXCR4; 1.25 μg/ml ligustilide,3719.23
same,CXCR4 expression level (Image J),CXCR4; 2.5 μg/ml ligustilide,6539.03
same,CXCR4 expression level (Image J),CXCR4; 5 μg/ml ligustilide,4138.77
same,gene expression level of IL-6,IL-6; [1],decreased
same,IL-6 expression level (Image J),IL-6; 0.625 μg/ml ligustilide,7756.00
same,IL-6 expression level (Image J),IL-6; 1.25 μg/ml ligustilide,8204.13
same,IL-6 expression level (Image J),IL-6; 2.5 μg/ml ligustilide,5629.93
same,IL-6 expression level (Image J),IL-6; 5 μg/ml ligustilide,2804.03
same,gene expression level of BDNF,BDNF; [1],increased
same,BDNF expression level (Image J),BDNF; 0.625 μg/ml ligustilide,5411.77
same,BDNF expression level (Image J),BDNF; 1.25 μg/ml ligustilide,4915.77
same,BDNF expression level (Image J),BDNF; 2.5 μg/ml ligustilide,7069.72
same,BDNF expression level (Image J),BDNF; 5 μg/ml ligustilide,5083.65
same,gene expression level of NURR1,NURR1; [1],increased
same,NURR1 expression level (Image J),NURR1; 0.625 μg/ml ligustilide,0.00
same,NURR1 expression level (Image J),NURR1; 1.25 μg/ml ligustilide,0.00
same,NURR1 expression level (Image J),NURR1; 2.5 μg/ml ligustilide,6694.43
same,NURR1 expression level (Image J),NURR1; 5 μg/ml ligustilide,3360.55
same,gene expression level of SDF1αβ,SDF1αβ; [1],increased
same,SDF1αβ expression level (Image J),SDF1αβ; 0.625 μg/ml ligustilide,6766.31
same,SDF1αβ expression level (Image J),SDF1αβ; 1.25 μg/ml ligustilide,4065.23
same,SDF1αβ expression level (Image J),SDF1αβ; 2.5 μg/ml ligustilide,4791.36
same,SDF1αβ expression level (Image J),SDF1αβ; 5 μg/ml ligustilide,5767.31
